From PubChem BioAssay (NCI)
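Results reflect a 48-hour exposure of cells in 96-well plates to compound at five concentrations. TGI marks complete inhibition of growth.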

What was measured:
Assay in all cases: DTP human tumour cell line panel, 48 h
786-0 renal = tested on: 786-0 renal
A498 renal = tested on: A498 renal
A549 NSCLC = tested on: A549 NSCLC
ACHN renal = tested on: ACHN renal
CAKI-1 renal = tested on: CAKI-1 renal
DLD-1 colon = tested on: DLD-1 colon
DMS 114 small cell lung = tested on: DMS 114 small cell lung
EKVX NSCLC = tested on: EKVX NSCLC
HCC-2998 colon = tested on: HCC-2998 colon
HCT-116 colon = tested on: HCT-116 colon
HCT-15 colon = tested on: HCT-15 colon
HL-60(TB) leukemia = tested on: HL-60(TB) leukemia
HOP-18 NSCLC = tested on: HOP-18 NSCLC
HOP-62 NSCLC = tested on: HOP-62 NSCLC
HOP-92 NSCLC = tested on: HOP-92 NSCLC
IGROV1 ovarian = tested on: IGROV1 ovarian
K-562 leukemia = tested on: K-562 leukemia
KM20L2 colon = tested on: KM20L2 colon
LOX IMVI melanoma = tested on: LOX IMVI melanoma
LXFL 529 NSCLC = tested on: LXFL 529 NSCLC
M14 melanoma = tested on: M14 melanoma
MOLT-4 leukemia = tested on: MOLT-4 leukemia
NCI-H226 lung = tested on: NCI-H226 lung
NCI-H460 lung = tested on: NCI-H460 lung
NCI-H522 lung = tested on: NCI-H522 lung
OVCAR-3 ovarian = tested on: OVCAR-3 ovarian
OVCAR-4 ovarian = tested on: OVCAR-4 ovarian
OVCAR-8 ovarian = tested on: OVCAR-8 ovarian
RPMI-8226 leukemia = tested on: RPMI-8226 leukemia
RXF 393 renal = tested on: RXF 393 renal
RXF-631 renal = tested on: RXF-631 renal
SF-268 CNS = tested on: SF-268 CNS
SF-295 CNS = tested on: SF-295 CNS
SF-539 CNS = tested on: SF-539 CNS
SK-MEL-28 melanoma = tested on: SK-MEL-28 melanoma
SK-OV-3 ovarian = tested on: SK-OV-3 ovarian
SN12C renal = tested on: SN12C renal
SNB-19 CNS = tested on: SNB-19 CNS
SNB-75 CNS = tested on: SNB-75 CNS
SNB-78 CNS = tested on: SNB-78 CNS
SR leukemia = tested on: SR leukemia
SW-620 colon = tested on: SW-620 colon
TK-10 renal = tested on: TK-10 renal
U251 CNS = tested on: U251 CNS
UACC-257 melanoma = tested on: UACC-257 melanoma
UO-31 renal = tested on: UO-31 renal
XF 498 CNS = tested on: XF 498 CNS
CCRF-CEM leukemia = tested on: CCRF-CEM leukemia
COLO 205 colon = tested on: COLO 205 colon
DMS 273 small cell lung = tested on: DMS 273 small cell lung
HT29 colon = tested on: HT29 colon
KM12 colon = tested on: KM12 colon
M19-MEL melanoma = tested on: M19-MEL melanoma
MALME-3M melanoma = tested on: MALME-3M melanoma
NCI-H23 lung = tested on: NCI-H23 lung
OVCAR-5 ovarian = tested on: OVCAR-5 ovarian
SK-MEL-2 melanoma = tested on: SK-MEL-2 melanoma
SK-MEL-5 melanoma = tested on: SK-MEL-5 melanoma
UACC-62 melanoma = tested on: UACC-62 melanoma

Measured: TGI

CNC(=S)NC(=S)N(C)C
20 µM: HL-60(TB) leukemia
not listed: CCRF-CEM leukemia | COLO 205 colon | DMS 273 small cell lung | HT29 colon | KM12 colon | M19-MEL melanoma | MALME-3M melanoma | NCI-H23 lung | OVCAR-5 ovarian | SK-MEL-2 melanoma | SK-MEL-5 melanoma | UACC-62 melanoma
> 100 µM: all other assays above

CCC1(O)C(=O)OCc2c1cc1n(c2=O)Cc2cc3ccc(CO)cc3nc2-1 (stereo not given)
17 µM: UO-31 renal
> 44 µM: RXF 393 renal
52.3 µM: COLO 205 colon
11.3 µM: SK-MEL-5 melanoma
31.1 µM: HCT-116 colon
> 28.8 µM: SN12C renal
6.58 µM: NCI-H226 lung
0.298 µM: SR leukemia
26.8 µM: NCI-H522 lung
> 77.4 µM: IGROV1 ovarian
59.9 µM: MALME-3M melanoma
4.51 µM: SF-539 CNS
5.04 µM: U251 CNS
> 80.2 µM: HCC-2998 colon
78.5 µM: OVCAR-5 ovarian
11.1 µM: DMS 273 small cell lung
> 37.3 µM: RPMI-8226 leukemia
23.5 µM: CAKI-1 renal
24.4 µM: OVCAR-3 ovarian
0.987 µM: CCRF-CEM leukemia
> 87.3 µM: HOP-92 NSCLC
> 79.3 µM: SF-295 CNS
12.5 µM: LOX IMVI melanoma
9.77 µM: SNB-75 CNS
10.2 µM: NCI-H23 lung
16.8 µM: XF 498 CNS
7.51 µM: 786-0 renal
> 41.3 µM: OVCAR-8 ovarian
2.56 µM: HOP-62 NSCLC
11 µM: ACHN renal
64.5 µM: SK-MEL-2 melanoma
24.5 µM: A498 renal
> 27 µM: HL-60(TB) leukemia
22.5 µM: NCI-H460 lung
54 µM: M19-MEL melanoma
> 81.4 µM: HT29 colon
> 93.9 µM: HOP-18 NSCLC
> 69.9 µM: KM20L2 colon
33.1 µM: M14 melanoma
7.34 µM: UACC-62 melanoma
not listed: MOLT-4 leukemia | SNB-78 CNS
> 100 µM: all other assays above

FC(F)(F)c1cccc2ns[s+]c12
not listed: DMS 114 small cell lung | HCT-15 colon | HOP-92 NSCLC | RPMI-8226 leukemia
> 100 µM: all other assays above

NC(=O)n1ncc(Cl)c(Cl)c1=O
not listed: HCC-2998 colon | LOX IMVI melanoma | MOLT-4 leukemia | RPMI-8226 leukemia | RXF 393 renal | SR leukemia
> 100 µM: all other assays above

CCOC(=O)N1C(=O)C2C3C=CC(C2C1=O)C1C2C(=O)N(C(=O)OCC)C(=O)C2C31 (stereo not given)
> 60.7 µM: DMS 273 small cell lung
> 64.4 µM: NCI-H460 lung
> 64 µM: LOX IMVI melanoma
> 55.2 µM: HCT-116 colon
> 67.2 µM: HCT-15 colon
41.1 µM: HL-60(TB) leukemia
> 70 µM: DMS 114 small cell lung
> 59.4 µM: SW-620 colon
not listed: SR leukemia
> 100 µM: all other assays above
